Activity calls are given as the source filed them. The calls are words filed in the database; no cut-off is given here.
Experiments:
[1] = Inhibition of synthetic AcPHF6 peptide aggregation in pH 7.4 phosphate buffer assessed as reduction in fluorescence intensity at 50 uM and measured every minute over 2 hrs with 5 secs shaking prior to each reading by ThT fluorescence assay
[2] = Metal chelating activity assessed as Cu2+-compound complex formation at 40 uM after 30 mins by UV-Visible spectrophotometric method
[3] = Metal chelating activity assessed as Cu2+-compound complex formation at 40 uM incubated with 0-100 uM copper(II) sulfate after 30 mins by UV-Visible spectrophotometric method
[4] = Metal chelating activity assessed as Fe2+-compound complex formation at 40 uM after 30 mins by UV-Visible spectrophotometric method

| Compound | inhibition [1] | Activity [2] | Activity [3] | Activity [4] |
| --- | --- | --- | --- | --- |
| CCOC(=O)C(=Cc1cc(O)c(O)c(O)c1)C(=O)OCC | inactive |  |  |  |
| O=C(/C=C/c1ccc(O)c(O)c1)NCCc1ccccc1 | inactive |  |  |  |
| O=C(O)C(=Cc1cc(O)c(O)c([N+](=O)[O-])c1)C(=O)O | inactive |  |  |  |
| N#C/C(=C\c1cc(O)c(O)c([N+](=O)[O-])c1)C(=O)NCCc1ccccc1 | 89.2% | Active | Active | inactive |
| O=C(O)c1cc(O)c(O)c(O)c1 | inactive |  |  |  |
| CCOC(=O)/C=C/c1ccc(O)c(O)c1 | inactive |  |  |  |
| O=S(=O)(O)c1cc(S(=O)(=O)O)c2c(/N=N/c3ccccc3)c(O)ccc2c1 | 54% |  |  |  |
| O=C(O)/C=C/c1cc(O)c(O)c([N+](=O)[O-])c1 | 45% |  |  |  |
| N#C/C(=C\c1cc(O)c(O)c([N+](=O)[O-])c1)C(=O)OCc1ccccc1 | 71.2% | Active |  | inactive |
| CCOC(=O)/C=C/c1cc(O)c(O)c(O)c1 | 21% |  |  |  |
| O=C(/C=C/c1ccc(O)c(O)c1)OCCc1ccccc1 | 17% |  |  |  |
| CCN(CC)C(=O)/C(C#N)=C/c1cc(O)c(O)c([N+](=O)[O-])c1 | 60.3% |  |  |  |
| CCOC(=O)/C=C/c1cc(O)c(O)c([N+](=O)[O-])c1 | 44% |  |  |  |
| O=C(O)/C=C/c1ccc(O)cc1 | inactive |  |  |  |
| N#C/C(=C\c1cc(O)c(O)c([N+](=O)[O-])c1)C(=O)NCc1ccccc1 | 90.5% | Active |  | inactive |
| O=C(/C=C/c1cc(O)c(O)c([N+](=O)[O-])c1)OCCc1ccccc1 | 55.2% | Active |  | inactive |
| O=C(/C=C/c1ccc(O)c(O)c1)OCc1ccccc1 | 13% |  |  |  |
| CCOC(=O)/C=C/c1ccc(O)cc1 | inactive |  |  |  |
| CCOC(=O)C(=Cc1ccc(O)c(O)c1)C(=O)OCC | inactive |  |  |  |
| Cc1ccc(C(=O)c2cc(O)c(O)c([N+](=O)[O-])c2)cc1 | 64.6% |  |  |  |
| CCOC(=O)C(=Cc1ccc(O)cc1)C(=O)OCC | inactive |  |  |  |
| N#C/C(=C\c1cc(O)c(O)c([N+](=O)[O-])c1)C(=O)OCCc1ccccc1 | 74.4% | Active |  | inactive |
| O=C(/C=C/c1cc(O)c(O)c([N+](=O)[O-])c1)OCc1ccccc1 | 44.5% | Active |  | inactive |
| O=C(O)c1ccc(O)c(O)c1 | inactive |  |  |  |
| O=C(O)/C=C/c1cc(O)c(O)c(Br)c1 | 18% |  |  |  |
| O=C(O)/C=C/c1cc(O)c(O)c(O)c1 | inactive |  |  |  |
| O=C(O)/C=C/c1ccc(O)c(O)c1 | inactive |  |  |  |
| CCOC(=O)C(=Cc1cc(O)c(O)c([N+](=O)[O-])c1)C(=O)OCC | 41% |  |  |  |

Source: ChEMBL document CHEMBL4339186, “Repurposing nitrocatechols: 5-Nitro-α-cyanocarboxamide derivatives of caffeic acid and caffeic acid phenethyl ester effectively inhibit aggregation of tau-derived hexapeptide AcPHF6” (Eur J Med Chem, 2019)
